Measurements as given in patent EP2925336B1, “NATURAL COMPOUNDS FOR USE IN THE TREATMENT OF BETA-2 ADRENERGIC RECEPTOR RELATED DISEASES” (Harmonic Pharma, priority 2012, dated 2014).

How the values were obtained:
[1] = target: human β2-adrenergic receptor (Homo sapiens, UniProt P07550); test: agonist effect on the human β2-adrenergic receptor, cellular cAMP accumulation assay (HTRF); format: cell-based; conditions: recombinant CHO cells; for EC50: 30 minutes at room temperature, read-out: ECso; for β2 adrenergic receptor agonist activity: summary in words
Sequence of human β2-adrenergic receptor (P07550 whole entry): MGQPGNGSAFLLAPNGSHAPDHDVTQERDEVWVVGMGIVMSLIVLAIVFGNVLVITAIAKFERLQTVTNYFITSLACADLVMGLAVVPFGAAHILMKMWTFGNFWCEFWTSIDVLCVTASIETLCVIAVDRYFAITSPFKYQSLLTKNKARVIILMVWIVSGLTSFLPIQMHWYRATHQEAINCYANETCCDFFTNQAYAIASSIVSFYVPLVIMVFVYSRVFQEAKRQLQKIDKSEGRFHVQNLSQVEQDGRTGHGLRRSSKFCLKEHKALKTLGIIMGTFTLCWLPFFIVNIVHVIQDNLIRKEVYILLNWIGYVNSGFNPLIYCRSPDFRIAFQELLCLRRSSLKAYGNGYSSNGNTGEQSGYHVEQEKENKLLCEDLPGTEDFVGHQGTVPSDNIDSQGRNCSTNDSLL
Description: We then have tested the in vitro activity of (-)-hydroxymatairesinol (two epimers; 7S,8R,8'R and 7R,8R,8'R), (-)(7S,8R,8'R)-hydroxymatairesinol, (+)-lariciresinol, (-)-secoisolariciresinol, knot-wood extracts of Picea abies and Abies alba against β2-adrenergic receptor, in a cellular based assay, according to the Table 1 below (Baker J.G. (2005), Brit. J. Pharmacol., 144: 317). Table 1: Test of the agonist effect of compounds on the human β2-adrenergic receptor
Mammalian recombinant cells (CHO cells) stably expressing human β2-adrenergic receptor were suspended in HBSS buffer (Invitrogen) complemented with 20 mM HEPES (pH 7.4) and 500 µM IBMX, then distributed in microplates at a density of 10^4 cells/well and incubated for 30 min at room temperature in the presence of HBSS (basal control), the test compound or the reference agonist. For stimulated control measurement, separate assay wells contained 100 nM isoproterenol. Following incubation, the cells were lysed and the fluorescence acceptor (D2-labeled cAMP) and fluorescence donor (anti-cAMP antibody labeled with europium cryptate) were added. After 60 min at room temperature, the fluorescence transfer was measured at λex=337 nm and λem=620 and 665 nm using a microplate reader (Rubystar, BMG). The cAMP concentration was determined by dividing the signal measured at 665 nm by that measured at 620 nm (ratio). Results are expressed as a percent of the control response to 100 nM isoproterenol. The standard reference agonist is isoproterenol, which was tested in each experiment at several concentrations to generate a concentration-response curve from which its EC50 value was calculated.
The knot-wood extract for use of the invention as well as the lignans for use of the invention were tested at a concentration of 10^-5 M. Results are presented in Figure 4, and are expressed as a percentage of control agonist response, wherein 100% corresponds to the agonist response measured when cells are treated with 0.1 µM isoproterenol.
Then, we measured the corresponding EC50. EC50 represents the half maximal effective concentration, and refers to the concentration of a compound which induces a response halfway between the baseline and maximum.

[2] = system: TNF-α; test: elastase lung injury model, TNF-α in bronchoalveolar lavage fluid (ELISA); format: in vivo, mice; conditions: elastase group vs control group; HMR 30 mg/kg intratracheal instillation 15 min before elastase; BAL fluid after 24 hours; p < 0.05
Protocol: (§1) Male C57B1/6 WT mice (n=35) weighing between 20 and 25 g and aged of 8 weeks were obtained from Janvier Labs (Saint Berthevin, France) and were housed in the animal facility of the laboratory, with free access to water and food, for at least 1 week before the beginning of the experimentation.
(§2) The mice were randomly divided into six groups (n = 5-6/group). At t=0, mice were submitted to intratracheal instillation with lignan of the invention (HMR with a purity of 95%, 30 mg/kg body wt dissolved in PBS containing 1% DMSO) or with PBS with 1% DMSO. At t=15 min, mice were submitted to instillation either with 30 µl of elastase (1UI diluted in PBS) or 30 µl of LPS (10 µg/ml diluted in PBS) or 30 µl of PBS containing 1% DMSO. Mice were anesthetized with 150 µl of a solution containing xylazine 10% and ketamine 10% and sacrificed after 24 hours, and the bronchoalveolar lavage (BAL) fluid was collected for subsequent analyses.
(§3) Lungs were washed twice with 1ml of PBS then centrifuged at 10,000 rpm at 4°C for 10 min, and the resulting supernatant of the BAL was aliquoted as 210 µl samples and used for TNF-α cytokine protein quantification using an ELISA kit (mouse TNF-alpha DuoSet; R&D Systems Europe, Ltd., France).

[3] = system: TNF-α; test: LPS lung injury model, TNF-α in bronchoalveolar lavage fluid (ELISA); format: in vivo, mice; conditions: LPS group vs control group; HMR 30 mg/kg intratracheal instillation 15 min before LPS; BAL fluid after 24 hours; p < 0.05
Protocol: as §1, §2, §3

[4] = system: TNF-α; test: cigarette smoke-induced lung injury model, TNF-α in bronchoalveolar lavage fluid (ELISA); format: in vivo; conditions: mice exposed to cigarette smoke vs non-treated mice; HMR 30 mg/kg intratracheal instillation daily for 4 days; BAL fluid at day 5; p < 0.05
Protocol: Male C57B1/6 WT mice (n=36) weighting between 20 and 25 g and aged of 9 weeks were obtained from Janvier Labs (Saint Berthevin, France) and were housed in the animal facility of the laboratory, with free access to water and food, for at least 1 week before the beginning of the experimentation.
The mice were randomly divided into six groups (n = 6/group). Mice were submitted to intratracheal instillation with 50 µl lignan of the invention (HMR with a purity of 95%, 30 mg/kg body wt dissolved in PBS containing 5%DMSO) or with PBS with 5% DMSO daily: After 3 hours mice were exposed to ambient air (AA) or to cigarette smoke (CS; 18 cigarettes per hour) for 3 hours.
This procedure was repeated 4 days. Mice were anesthetized with 250 µl of a solution containing xylazine 10% and ketamine 10% and were sacrificed at day 5. The BAL fluid was collected for analyses.
Lungs were washed twice with 1ml of PBS then centrifuged at 10,000 rpm at 4°C for 10 min, and the resulting supernatant of the BAL was aliquoted as 210 µl samples and used for TNF-α cytokine protein quantification using an ELISA kit (mouse TNFalpha DuoSet; R&D Systems Europe, Ltd., France).

Compound | EC50 [1] [µM] | β2 adrenergic receptor agonist activity [1] | level of TNF-α [2] | level of TNF-α [3] | level of TNF-α [4]
COc1cc(C[C@@H](CO)[C@H](CO)Cc2ccc(O)c(OC)c2)ccc1O [Seco, (-)-Secoisolariciresinol] | 2.5 | strong β2 adrenergic receptor agonist activity | – | – | –
COc1cc(C[C@H]2C(=O)OC[C@@H]2C(O)c2ccc(O)c(OC)c2)ccc1O (mixture of isomers) [HMR, (-) hydroxymatairesinol (2 epimers: 7S,8R,8'R and 7R,8R,8'R)] | 0.35 | strong β2 adrenergic receptor agonist activity | significantly reduced | significantly reduced | significant reduced level
COc1cc(CC2C(=O)OCC2C(O)c2ccc(O)c(OC)c2)ccc1O (single isomer, unassigned; (-)) [HMR2] | 1.5 | strong β2 adrenergic receptor agonist activity | – | – | –
COc1cc(C[C@H]2CO[C@H](c3ccc(O)c(OC)c3)[C@H]2CO)ccc1O [Lari, (+)-lariciresinol] | 1.7 | strong β2 adrenergic receptor agonist activity | – | – | –
